Experimental data taken from US4468469A, “Substituted phenylacetic acids and salts as TBP blocking agents in iodothyronine immunoassays” (Miles Laboratories, Inc., priority 1982, dated 1984).

Legend:
[1] = system: serum proteins (thyroxine binding protein, TBP); test: Effect of pH on the dissociation of iodothyronine from serum proteins; set-up: species or system human; conditions: over the range pH 6.0-8.0; 2.0 mM
Protocol: Radioactive iodine labeled thyroxine (^125 I-thyroxine obtained from Amersham-Searle, Arlington Heights, IL, USA) was equilibrated with 5 ml of normal human serum for 48 hours at 4° C. […] After 5 minutes of incubation at room temperature, a 165 μl aliquot was applied to a Sephadex® column from a Seralute® thyroxine assay kit (Miles Laboratories, Inc., Ames Division, Elkhart, IN, USA), which had been equilibrated with 0.1M sodium phosphate, pH 7.0. The total radioactivity applied to the columns was measured and the undissociated material was washed through the column with 3 ml of buffer. The columns were counted to determine the percentage of thyroxine dissociated from the serum proteins.
Using the column procedure described in the second study in Example 1, the pH of the 0.1M sodium phosphate was varied and the concentration of the dissociating agent held constant at 2.0 mM. The columns were equilibrated with buffer containing the dissociating agent at the given pH and 165 μl of the serum diluted in buffer at the given pH (as described above) was applied to the column. The total counts were measured and then the columns were washed with buffer at the given pH. The counts remaining on the column represent the percentage of iodothyronine dissociated.

[2] = system: anti(thyroxine) antiserum / apoglucose oxidase; test: Apoenzyme reactivation immunoassay system for serum thyroxine; format: biochemical; conditions: 2 mM sodium salt of dissociating agent in buffer
Protocol: Standard curves for serum thyroxine were generated using a semiautomated assay protocol on the Gilford Clinical Chemistry Analyzer System 203-S (Gilford Instrument Laboratories, Oberline, OH, USA). […] The FAD-thyroxine conjugate (40 nM in 0.1M sodium phosphate, pH 7.0, 0.01% Triton X-100) as a 0.05 ml aliquot was added to the reaction cup and allowed to equilibrate for 30 seconds. The reaction was initiated by addition of 0.10 ml 1.0 μM apoglucose oxidase, 2 mM 4-aminoantipyrine, 12% glycerol, 80 mM sodium phosphate, pH 7.0. The absorbance at 520 nm was recorded after an 8 minute incubation.

[3] = Optical absorption spectra; format: physicochemical
apoglucose oxidase = apoglucose oxidase (Aspergillus niger, UniProt P13006); test: Activation of apoglucose oxidase by FAD-labeled conjugate (ANS comparison); format: biochemical
Sequence of apoglucose oxidase (P13006 17-605): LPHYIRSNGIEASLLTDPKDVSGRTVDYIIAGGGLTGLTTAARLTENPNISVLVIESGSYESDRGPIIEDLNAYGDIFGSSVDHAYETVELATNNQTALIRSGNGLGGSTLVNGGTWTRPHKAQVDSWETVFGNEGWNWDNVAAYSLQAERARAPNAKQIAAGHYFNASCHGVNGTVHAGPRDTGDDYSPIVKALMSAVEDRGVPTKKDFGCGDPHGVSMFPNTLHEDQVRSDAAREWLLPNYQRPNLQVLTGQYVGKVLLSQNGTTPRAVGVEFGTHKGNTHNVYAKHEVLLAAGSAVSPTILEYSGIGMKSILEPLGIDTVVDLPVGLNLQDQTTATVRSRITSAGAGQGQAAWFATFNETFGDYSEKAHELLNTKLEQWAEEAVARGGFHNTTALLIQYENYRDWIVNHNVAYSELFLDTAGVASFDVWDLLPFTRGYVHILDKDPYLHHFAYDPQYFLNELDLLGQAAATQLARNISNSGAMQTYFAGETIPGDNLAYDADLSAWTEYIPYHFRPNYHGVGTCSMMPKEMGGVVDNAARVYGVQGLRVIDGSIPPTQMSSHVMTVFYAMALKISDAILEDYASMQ
Protocol: For the purposes of comparison, a series of apoenzyme reactivation measurements were set up with different concentrations of the conventionally used blocking agent ANS. The following reagents were prepared:
0.105M potassium phosphate buffer, pH 7.0
1.1% (w:v) bovine serum albumin
5.26 nM FAD-labeled conjugate, supra
4 μM apoglucose oxidase, supra
50 mM phosphate buffer, pH 7.0
Apoenzyme activity was determined by placing 50 μl of Reagent B in a cuvette and starting the reaction by addition of 1.90 ml of Reagent A. The assay reactions were incubated for 10 minutes at room temperature and the absorbances at 520 nm recorded.

[4] = 50 μM solution in 0.1M phosphate buffer, pH 7.0

Compound | pH dependence of the dissociation of iodothyronine from serum proteins [1] | Absorbance (520 nm) ([2]; Thyroxine Standard 0 μg/L) | Absorbance (520 nm) ([2]; Thyroxine Standard 25 μg/L) | Absorbance (520 nm) ([2]; Thyroxine Standard 75 μg/L) | Absorbance (520 nm) ([2]; Thyroxine Standard 125 μg/L) | Absorbance (520 nm) ([2]; Thyroxine Standard 200 μg/L) | λmax ([3]; in 0.1M sodium hydroxide) [nanometers] | λmin ([3]; in 0.1M sodium hydroxide) [nanometers] | ε min (NaOH), extinction coefficient ([3]; in 0.1M sodium hydroxide, at λmin) [M⁻¹ cm⁻¹] | broad absorption band [3, 4] | wavelength of absorption peak [3, 4] | absorption peak height ([3]; 50 μM solution in 0.1M phosphate buffer, pH 7.0, at about 350 nm) | activity at 100 µM (apoglucose oxidase; 10 min, pH 7, 0.1 mM ANS in Reagent A, room temperature, read-out: Percent Apoglucose Oxidase Activity) [%] | activity at 200 µM (apoglucose oxidase; 10 min, pH 7, 0.2 mM ANS in Reagent A, room temperature, read-out: Percent Apoglucose Oxidase Activity) [%] | activity at 500 µM (apoglucose oxidase; 10 min, pH 7, 0.5 mM ANS in Reagent A, room temperature, read-out: Percent Apoglucose Oxidase Activity) [%] | activity at 1000 µM (apoglucose oxidase; 10 min, pH 7, 1.0 mM ANS in Reagent A, room temperature, read-out: Percent Apoglucose Oxidase Activity) [%] | effect on the recombination reaction of apoglucose oxidase and FAD-labeled conjugate (apoglucose oxidase; ANS concentrations above about 1.0 mM)
O=C(O)Cc1ccccc1Nc1c(Cl)cccc1Cl [Diclofenac, 2-(2,6-dichlorophenylamino)phenylacetic acid] | independent of pH | 0.619 | 0.620 | 0.647 | 0.678 | 0.719 | 275 | 248 | 6400 | – | – | – | – | – | – | – | –
O=S(=O)(O)c1cccc2cccc(Nc3ccccc3)c12 [ANS, 8-anilino-1-naphthalenesulfonic acid] | – | – | – | – | – | – | – | – | – | 300-400 nm | about 350 nm | 0.5 | 64 | 46 | 13 | 0 | totally inhibit
